# Organism: Rattus norvegicus
# Assay: DrugMatrix - Regimen: Daily Repeat
# Type: toxicity, organism-based, Sprague-Dawley
# Design: regimen Daily Repeat, gender Male, age 6-8 weeks
# Conditions: in vivo, iv, vehicle 100 % SALINE; for ABSOLUTE BASOPHIL / ABSOLUTE EOSINOPHIL / ABSOLUTE LYMPHOCYTE / ABSOLUTE MONOCYTE / ABSOLUTE SEGMENTED NEUTROPHIL / BASOPHIL / EOSINOPHIL / ERYTHROCYTE COUNT / HEMATOCRIT / HEMOGLOBIN / LEUKOCYTE COUNT / LYMPHOCYTE / MEAN CORPUSCULAR HEMOGLOBIN / MEAN CORPUSCULAR HEMOGLOBIN CONCENTRATION / MEAN CORPUSCULAR VOLUME / MONOCYTE / NEUTROPHIL / NUCLEATED RED BLOOD CELLS / PLATELET COUNT: tissue Blood; for ALANINE AMINOTRANSFERASE / ALBUMIN / ALKALINE PHOSPHATASE / ASPARTATE AMINOTRANSFERASE / BLOOD UREA NITROGEN / CARBON DIOXIDE / CHLORIDE / CHOLESTEROL / CREATINE PHOSPHOKINASE / CREATININE / GLUCOSE / LACTATE DEHYDROGENASE / LIPASE / PHOSPHORUS / POTASSIUM / SODIUM / TOTAL BILIRUBIN / TOTAL PROTEIN / URIC ACID: tissue Plasma
# [1] = 7 mg/kg, 120 h, dose level Low, time 5 day
# [2] = 41 mg/kg, 72 h, dose level High, time 3 day
# [3] = 41 mg/kg, 120 h, dose level High, time 5 day
smiles,measurement,setting,value
CC(=O)N[C@@H]1[C@H](Oc2c3cc4cc2Oc2ccc(cc2Cl)[C@@H](O[C@@H]2O[C@@H](CO)[C@@H](O)[C@H](O)[C@@H]2NC(C)=O)[C@@H]2NC(=O)[C@H](NC(=O)[C@@H]4NC(=O)[C@H]4NC(=O)[C@@H](Cc5ccc(c(Cl)c5)O3)NC(=O)[C@H](N)c3ccc(O)c(c3)Oc3cc(O)cc4c3)c3ccc(O)c(c3)-c3c(O[C@H]4O[C@H](CO)[C@@H](O)[C@@H](O)[C@@H]4O)cc(O)cc3[C@@H](C(=O)O)NC2=O)O[C@@H](CO)[C@@H](O)[C@@H]1O,ABSOLUTE BASOPHIL,[1],0 CELLS/uL
same,ABSOLUTE EOSINOPHIL,[1],166 CELLS/uL
same,ABSOLUTE LYMPHOCYTE,[1],15568 CELLS/uL
same,ABSOLUTE MONOCYTE,[1],230.67 CELLS/uL
same,ABSOLUTE SEGMENTED NEUTROPHIL,[1],1568.67 CELLS/uL
same,BASOPHIL,[1],0%
same,EOSINOPHIL,[1],1%
same,ERYTHROCYTE COUNT,[1],5.77 x10E6/uL
same,HEMATOCRIT,[1],36.27%
same,HEMOGLOBIN,[1],13.63 G/DL
same,LEUKOCYTE COUNT,[1],17.53 x10E3/uL
same,LYMPHOCYTE,[1],88.67%
same,MEAN CORPUSCULAR HEMOGLOBIN,[1],23.67 pg
same,MEAN CORPUSCULAR HEMOGLOBIN CONCENTRATION,[1],37.57 G/DL
same,MEAN CORPUSCULAR VOLUME,[1],62.97 fL
same,MONOCYTE,[1],1.33%
same,NEUTROPHIL,[1],9%
same,NUCLEATED RED BLOOD CELLS,[1],0 /100WBC
same,PLATELET COUNT,[1],1190.67 x10E3/uL
same,ALANINE AMINOTRANSFERASE,[1],40.67 u/L
same,ALBUMIN,[1],4.23 G/DL
same,ALKALINE PHOSPHATASE,[1],395 u/L
same,ASPARTATE AMINOTRANSFERASE,[1],84.33 u/L
same,BLOOD UREA NITROGEN,[1],19.33 mg/dL
same,CARBON DIOXIDE,[1],24 mmol/L
same,CHLORIDE,[1],106.67 MEQ/L
same,CHOLESTEROL,[1],59.33 mg/dL
same,CREATINE PHOSPHOKINASE,[1],389.67 u/L
same,CREATININE,[1],0.18 mg/dL
same,GLUCOSE,[1],149 mg/dL
same,LACTATE DEHYDROGENASE,[1],466.67 u/L
same,LIPASE,[1],8.33 u/L
same,PHOSPHORUS,[1],11.47 mg/dL
same,POTASSIUM,[1],5.99 MEQ/L
same,SODIUM,[1],144.47 MEQ/L
same,TOTAL BILIRUBIN,[1],0.2 mg/dL
same,TOTAL PROTEIN,[1],6.03 G/DL
same,URIC ACID,[1],1.17 mg/dL
same,ABSOLUTE BASOPHIL,[2],0 CELLS/uL
same,ABSOLUTE EOSINOPHIL,[2],126.67 CELLS/uL
same,ABSOLUTE LYMPHOCYTE,[2],16661.33 CELLS/uL
same,ABSOLUTE MONOCYTE,[2],515.67 CELLS/uL
same,ABSOLUTE SEGMENTED NEUTROPHIL,[2],1929.67 CELLS/uL
same,BASOPHIL,[2],0%
same,EOSINOPHIL,[2],0.67%
same,ERYTHROCYTE COUNT,[2],5.53 x10E6/uL
same,HEMATOCRIT,[2],35.03%
same,HEMOGLOBIN,[2],13.17 G/DL
same,LEUKOCYTE COUNT,[2],19.23 x10E3/uL
same,LYMPHOCYTE,[2],86.67%
same,MEAN CORPUSCULAR HEMOGLOBIN,[2],23.83 pg
same,MEAN CORPUSCULAR HEMOGLOBIN CONCENTRATION,[2],37.6 G/DL
same,MEAN CORPUSCULAR VOLUME,[2],63.4 fL
same,MONOCYTE,[2],2.67%
same,NEUTROPHIL,[2],10%
same,NUCLEATED RED BLOOD CELLS,[2],0 /100WBC
same,PLATELET COUNT,[2],1404 x10E3/uL
same,ALANINE AMINOTRANSFERASE,[2],41.67 u/L
same,ALBUMIN,[2],4.13 G/DL
same,ALKALINE PHOSPHATASE,[2],271.33 u/L
same,ASPARTATE AMINOTRANSFERASE,[2],67.33 u/L
same,BLOOD UREA NITROGEN,[2],18.33 mg/dL
same,CARBON DIOXIDE,[2],27 mmol/L
same,CHLORIDE,[2],102 MEQ/L
same,CHOLESTEROL,[2],61.67 mg/dL
same,CREATINE PHOSPHOKINASE,[2],181 u/L
same,CREATININE,[2],0.21 mg/dL
same,GLUCOSE,[2],153.67 mg/dL
same,LACTATE DEHYDROGENASE,[2],125.67 u/L
same,LIPASE,[2],8.33 u/L
same,PHOSPHORUS,[2],11.33 mg/dL
same,POTASSIUM,[2],6.69 MEQ/L
same,SODIUM,[2],143.47 MEQ/L
same,TOTAL BILIRUBIN,[2],0.2 mg/dL
same,TOTAL PROTEIN,[2],5.87 G/DL
same,URIC ACID,[2],1.37 mg/dL
same,ABSOLUTE BASOPHIL,[3],0 CELLS/uL
same,ABSOLUTE EOSINOPHIL,[3],0 CELLS/uL
same,ABSOLUTE LYMPHOCYTE,[3],12482 CELLS/uL
same,ABSOLUTE MONOCYTE,[3],440.67 CELLS/uL
same,ABSOLUTE SEGMENTED NEUTROPHIL,[3],1610.67 CELLS/uL
same,BASOPHIL,[3],0%
same,EOSINOPHIL,[3],0%
same,ERYTHROCYTE COUNT,[3],5.88 x10E6/uL
same,HEMATOCRIT,[3],36.7%
same,HEMOGLOBIN,[3],13.8 G/DL
same,LEUKOCYTE COUNT,[3],14.53 x10E3/uL
same,LYMPHOCYTE,[3],86%
same,MEAN CORPUSCULAR HEMOGLOBIN,[3],23.47 pg
same,MEAN CORPUSCULAR HEMOGLOBIN CONCENTRATION,[3],37.6 G/DL
same,MEAN CORPUSCULAR VOLUME,[3],62.47 fL
same,MONOCYTE,[3],3%
same,NEUTROPHIL,[3],11%
same,NUCLEATED RED BLOOD CELLS,[3],0 /100WBC
same,PLATELET COUNT,[3],1300.33 x10E3/uL
same,ALANINE AMINOTRANSFERASE,[3],57.67 u/L
same,ALBUMIN,[3],4.3 G/DL
same,ALKALINE PHOSPHATASE,[3],395 u/L
same,ASPARTATE AMINOTRANSFERASE,[3],79.33 u/L
same,BLOOD UREA NITROGEN,[3],18.67 mg/dL
same,CARBON DIOXIDE,[3],29.67 mmol/L
same,CHLORIDE,[3],102.33 MEQ/L
same,CHOLESTEROL,[3],69.67 mg/dL
same,CREATINE PHOSPHOKINASE,[3],275 u/L
same,CREATININE,[3],0.19 mg/dL
same,GLUCOSE,[3],177 mg/dL
same,LACTATE DEHYDROGENASE,[3],229 u/L
same,LIPASE,[3],9 u/L
same,PHOSPHORUS,[3],13.2 mg/dL
same,POTASSIUM,[3],6.79 MEQ/L
same,SODIUM,[3],148.17 MEQ/L
same,TOTAL BILIRUBIN,[3],0.17 mg/dL
same,TOTAL PROTEIN,[3],6.3 G/DL
same,URIC ACID,[3],1.83 mg/dL
